# Test results reported in patent US7138389B2, “Oral androgen therapy using modulators of testosterone bioavailability” (University of Washington, priority 2004, dated 2006).
# Where two headings read alike, the source gives them in different places. Marks after values point to notes of the source that are not given here. Where a SMILES comes first, the peptide text is derived from it. [ ]: non-standard residue; d: D form. dPhe(4-NH2) = Nc1ccc(C[C@@H](N)C(=O)O)cc1; dPhe(4-Cl) = N[C@H](Cc1ccc(Cl)cc1)C(=O)O; Phe(4-NH2) = Nc1ccc(C[C@H](N)C(=O)O)cc1; d2Nal = N[C@H](Cc1ccc2ccccc2c1)C(=O)O; Lys(iPr) = CC(C)NCCCC[C@H](N)C(=O)O; d3Pal = N[C@H](Cc1cccnc1)C(=O)O
# Experiments:
# [1] = Serum testosterone pharmacokinetics after single oral doses of testosterone or testosterone enanthate in oil with and without dutasteride (Example 2); settings: for maximum concentration of testosterone versus normal range: normal range 8.7–33 nmol/L; for serum testosterone after oral administration in oil: 200, 400, 800 mg, all men; for Testosterone AUC (area under-the-curve): serum testosterone, mean ± SD
# Experimental: (§1) Study Design: Participants were randomly assigned to one of two groups: 1) oral testosterone in sesame oil, or 2) oral testosterone enanthate in sesame oil (Delatestryl, BTG Pharmaceuticals, Iselin, N.J.) at a concentration of 200 mg/ml. A sample size of seven subjects per group was estimated to have an 80% power with an α of 0.05 to detect a 50% in the change in serum testosterone area-under-the curve between doses. The oral testosterone enanthate in sesame oil was manufactured by the compounding pharmacy at the University of Washington. Briefly, micronized testosterone (U.S.P. grade, Spectrum Quality Projects, Gardena, Calif., USA) was suspended at 100 mg/ml in sesame oil (N.F. grade, Spectrum Quality Projects, Gardena, Calif., USA), and mixed thoroughly on a magnetic stir plate to create a homogenous testosterone enanthate/sesame oil emulsion. The compounding pharmacist then drew up the emulsion into syringes at the desired dose levels (200, 400 and 800 mg). The dose of oral testosterone enanthate in sesame oil was normalized for the testosterone content, so that the subjects in the testosterone enanthate group (molecular weight 397) were administered 276, 554 and 1108 mg of testosterone enanthate, corresponding to 200, 400 and 800 mg of testosterone.
# (§2) The drug exposure period lasted 12 days (FIG. 6). […] One, two and three days after acyline administration, as per the protocol of FIG. 6, subjects drank 200, 400 or 800 mg of testosterone or testosterone enthanate in oil, mixed with 8 oz of whole milk. These doses were repeated days eight, nine and ten days after the acyline injection. […] For safety, subjects underwent daily testing of liver function (AST, bilirubin, alkaline phosphatase), kidney function (BUN, creatinine) and hematopoiesis (hemoglobin and hematocrit).
# (§3) Total serum testosterone was measured by a radioimmunoassay (Diagnostic Products Corporation, Los Angeles, Calif.). […] The normal range was 8.7–33 nmol/L. DHT was measured using an RIA Kit (Diagnostic Systems Laboratory, Los Angeles, Calif.). The sensitivity of this assay was 0.043 nmol/L and the intra-assay variation for mid and low-range pools was 9.9% and 11%, with interassay coefficients of variations of 19 and 25%. […] The normal range was 3.2–47 nmol/L. The normal ranges for testosterone, DHT and SHBG were determined in our laboratory using serum samples obtained from 100 normal men aged 20–50 years.
# Statistics: Hormone were log transformed prior to analysis. […] Changes between groups were analyzed by ANOVA. Statistical analyses were performed using STATA ([…], Tex., USA). Type I error was set at 0.05 for all analyses.
# [2] = Serum DHT pharmacokinetics after single oral doses of testosterone or testosterone enanthate in oil with and without dutasteride (Example 2); settings: 200, 400, 800 mg; all men
# Experimental: as §1, with “The compounding pharmacist then drew up the emulsion into syringes at the desired dose levels (200, 400 and 800 mg). The dose of oral testosterone enanthate in sesame oil was normalized for the testosterone content, so that the subjects in the testosterone enanthate group (molecular weight 397) were administered 276, 554 and 1108 mg of testosterone enanthate, corresponding to 200, 400 and 800 mg of testosterone.” left out
# as §3, with “Calif.).” for “Calif.). The sensitivity of this assay was 0.043 nmol/L and the intra-assay variation for mid and low-range pools was 9.9% and 11%, with interassay coefficients of variations of 19 and 25%.”
# Statistics: Hormone were log transformed prior to analysis. […] Changes between groups were analyzed by ANOVA. […]
# [3] = in vivo; cited from earlier work
# [4] = tested on: serum proteins (SHBG, albumin); settings: cited from earlier work
# [5] = cited from earlier work
# 5-α-reductase = settings: cited from earlier work
# [6] = men receiving testosterone by intramuscular administration; cited from earlier work
# [7] = design: species or system human; settings: in vivo
# From the text: The drug exposure period lasted 12 days (FIG. 6).
# [8] = tested on: endogenous testosterone production; test: Suppression of endogenous testosterone production by GnRH antagonist acyline; assay type: in vivo, human
# Experimental: as §2, §3
# [9] = tested on: endogenous testosterone production; settings: cited from earlier work
structure (smiles),measurement,setting,value
"CCCCCCC(=O)O[C@H]1CC[C@H]2[C@@H]3CCC4=CC(=O)CC[C@]4(C)[C@H]3CC[C@]12C [Testosterone Enanthate-only, testosterone enanthate]",maximum concentration of testosterone versus normal range,[1]; 400 mg oral dose in oil,exceeding the normal range
same,maximum concentration of testosterone versus normal range,[1]; 800 mg oral dose in oil,exceeding the normal range
same,serum testosterone after oral administration in oil,[1],significantly increased in all men in a dose-dependent fashion
same,serum DHT after oral administration in oil,[2],significantly increased the serum DHT in all men in a dose-dependent fashion
"C[C@]12CC[C@H]3[C@@H](CCC4=CC(=O)CC[C@@]43C)[C@@H]1CC[C@@H]2O [Testosterone-only, testosterone]",maximum concentration of testosterone versus normal range,[1]; 800 mg oral dose in oil,exceeding the normal range
same,serum testosterone after oral administration in oil,[1],significantly increased in all men in a dose-dependent fashion
same,Testosterone AUC (area under-the-curve),[1]; single oral dose 200 mg in oil,124 ± 28 nmol·h/L
same,Testosterone AUC (area under-the-curve),"[1]; single oral dose 200 mg in oil, listed as testosterone-alone",124 ± 28 nmol·h/L
same,Testosterone AUC (area under-the-curve),[1]; single oral dose 400 mg in oil,208 ± 74^a nmol-hours/L
same,Testosterone AUC (area under-the-curve),"[1]; single oral dose 400 mg in oil, listed as testosterone-alone",208 ± 74 nmol·h/L
same,Testosterone AUC (area under-the-curve),[1]; single oral dose 800 mg in oil,328 ± 72^a nmol-hours/L
same,Testosterone AUC (area under-the-curve),"[1]; single oral dose 800 mg in oil, listed as testosterone-alone",328 ± 82 nmol·h/L
same,serum DHT after oral administration in oil,[2],significantly increased the serum DHT in all men in a dose-dependent fashion
same,"half-life of testosterone, reported values",[3],10 to 100 min
same,blood testosterone bound to serum proteins,[4],About 98%
same,circulating plasma testosterone bound to sex hormone-binding globulin (SHBG),[4],Approximately 40%
same,circulating plasma testosterone unbound (free),[4]; plasma,2%
same,effect on serum testosterone levels,"[5]; 200 mg doses of oral testosterone, for up to eight hours",elevate serum testosterone levels to the low normal range
same,effect on serum testosterone levels,"[5]; oral unmodified testosterone at doses up to 100 mg, deficient men",little effect
"CC(C)(C)NC(=O)[C@H]1CC[C@H]2[C@@H]3CC[C@H]4NC(=O)C=C[C@]4(C)[C@H]3CC[C@]12C [finasteride, (5α,17beta)-N-(1,1-dimethylethyl)-3-oxo-4-azaandrost-1-ene-17-carboxamide]",reduction of prostate DHT levels,5-α-reductase; administration of finasteride,90%
same,reduction of serum DHT levels,5-α-reductase; administration of finasteride,70%
same,increase of testosterone levels,5-α-reductase; men given finasteride (Gormley et al.),about 10%
same,levels of serum testosterone,[6],without substantial effect
CCCCCCCCCCC(=O)O[C@H]1CC[C@H]2[C@@H]3CCC4=CC(=O)CC[C@]4(C)[C@H]3CC[C@]12C [Testosterone undecanoate],effect of food intake on absorption,[5]; oral (Bagchus et al.),dramatically improved
same,serum DHT on oral TU therapy,[5]; oral,well above the normal range
same,serum testosterone on oral TU therapy,[5]; oral,therapeutic increases
CC(=O)Nc1ccc(C[C@H](NC(=O)[C@H](CO)NC(=O)[C@@H](Cc2cccnc2)NC(=O)[C@@H](Cc2ccc(Cl)cc2)NC(=O)[C@@H](Cc2ccc3ccccc3c2)NC(C)=O)C(=O)N[C@H](Cc2ccc(NC(C)=O)cc2)C(=O)N[C@@H](CC(C)C)C(=O)N[C@@H](CCCCNC(C)C)C(=O)N2CCC[C@H]2C(=O)N[C@H](C)C(N)=O)cc1 [acyline] (Ac-[d2Nal][dPhe(4-Cl)][d3Pal]S[Phe(4-NH2)](Ac)[dPhe(4-NH2)](Ac)L[Lys(iPr)]P[dA]-NH2),injection-site reaction,[7],transient pruritis
same,serum DHT 24 hours after acyline administration (day 1),"[8]; all subjects, Day 0 DHT 1.6±0.6, P<0.05",0.6 ± 0.2 nmol/L
same,serum testosterone 24 hours after acyline administration (day one),"[8]; all subjects, acyline 300 mcg/kg SQ, day zero 20.0±7.4, P<0.0001",2.3 ± 0.5 nmol/L
same,serum DHT 24-hours post acyline,[8]; testosterone enanthate group,0.6 ± 0.2 nmol/L
same,serum testosterone 24-hours post acyline,[8]; testosterone enanthate group,2.3 ± 0.8 nmol/L
same,serum DHT 24-hours post acyline,[8]; testosterone group,0.5 ± 0.2 nmol/L
same,serum testosterone 24-hours post acyline,[8]; testosterone group,2.3 ± 0.7 nmol/L
same,duration of suppression of endogenous testosterone production in men,[9]; previously shown (Herbst et al.),2 weeks
same,duration of suppression of testosterone production in normal men,[9]; single injection 300 mcg/kg SQ,≥ 15 days
